Measurements from article PMC5614861 (Organic & biomolecular chemistry, 2017).
“And” between values parts separate entries of the source, which are not always exact repeats. Identical values can stand only once. Numbered stars: 1 amine (or outer) side, 2 acyl side, 3 side chain; on linkers, the order of the positions; unused ones are H or OH. Bridge positions count the residues as written; N and C are the ends. Square brackets hold non-standard residues; d marks the D form. Peptide text beside a SMILES is read from it. X2 = O=C([C@@H]1C[C@H](n2cc(C3=CC=C[CH]3[Fe][CH]3C=CC=C3)nn2)CN1[*:1])[*:2]; X1 = O=C([C@@H]1C[C@H](n2cc(-c3ccc(-c4cccs4)cc3)nn2)CN1[*:1])[*:2]

Columns and labels:
[1] = biological target: monomeric wild type gp120 YU-2 (Human immunodeficiency virus type 1 group M subtype B, UniProt P35961); assay: Isothermal titration calorimetry; format: binding, HIV-1; settings: ITC, 25°C, 1× PBS pH 7.3
[2] = biological target: HIV-1 YU-2 gp120 binding to sCD4 (Human immunodeficiency virus type 1 group M subtype B, UniProt P35961); assay: SPR competition assay, inhibition of gp120 binding to CD4; settings: 250 nM YU-2 gp120, 25°C, PBS pH 7.4, triplicate
HOS.T4.R5 cells = assay: Cytotoxicity / cell viability assay; format: cell-based; settings: WST-1, 24 h post-exposure, highest concentration used 100 μM
HIV-1Bal.01 = format: cell-based; settings: cutoff 10 μM

Molecule	ΔH [1]	ΔS [1] [kcal/mol]	−TΔS [1] [kcal/mol]	Inhibition of gp120 binding to CD4 [2]	Cytotoxicity (cell viability) (HOS.T4.R5 cells)	Activity designation in HIV-1Bal.01 infection inhibition assay (HIV-1Bal.01)
CC[C@H](C)[C@@H]1NC(=O)[C@H](CC(N)=O)NC(=O)[C@@H](N)CC(=O)NCCCC[C@@H](C(N)=O)NC(=O)[C@H](Cc2c[nH]c3ccccc23)NC(=O)[C@@H]2C[C@H](n3cc(C4=CC=C[CH]4[Fe][CH]4C=CC=C4)nn3)CN2C1=O (stereo partly drawn) [cPT 3] (H-DNI[X2]WK-NH2; lactam 1-6)	-5.96 kcal/mol and -5.96 ± 0.13 kcal/mol	0.00922	-2.75	–	–	–
CC[C@H](C)[C@@H]1NC(=O)[C@H](CC(N)=O)NC(=O)[C@@H](N)CC(=O)NCCCC[C@@H](C(N)=O)NC(=O)[C@H](Cc2c[nH]c3ccccc23)NC(=O)[C@@H]2C[C@H](n3cc(-c4ccc(-c5cccs5)cc4)nn3)CN2C1=O [cPT 36] (H-DNI[X1]WK-NH2; lactam 1-6)	-4.07 ± 0.06 kcal/mol	0.0159	-4.74	inhibited	no cytotoxicity was detected	–
cPT 11	–	–	–	–	–	weak (the compound showed weak inhibition (less than 50%) at 10 μM)
